Test results published in US20210323918A1, “COMPOSITIONS AND METHODS FOR SUPPRESSING AND/OR TREATING A GROWTH RELATED DISEASE AND/OR A CLINICAL CONDITION THEREOF” (CK Biotech Inc., priority 2018, published 2021).

How the values were obtained:
C28/I2 cells = experiment: Protein and mRNA expression in C28/I2 chondrocyte cells; assay type: cell-based, human
Excerpt: Cell culture and reagents. The mouse chondrogenic cell line, ATDC5, was obtained from the RIKEN Cell Batik. The human juvenile costal chondrocyte cell line, C28/I2, was provided by Dr. W. U. Kim (Catholic University, Korea). HEK293-TOP cells (HEK293 cells containing the chromosomally incorporated TOPFlash gene) were provided by Dr. S. Oh (Kuk Min University, Korea). ATDCS cells were maintained in DMEM/F12 (1:1) (Gibco, Grand Island, N.Y.) supplemented with 5% FBS (Gibco). To induce hypertrophic differentiation, ATDC5 cells were incubated with insulin-transferrin-sodium selenite (ITS) supplement (Gibco) in three-dimensional alginate beads for 3 days, as previously described. See e.g., Kawasaki Y. et al. (2008), Phosphorylation of GSK-3beta by cGMP-dependent protein kinase II promotes hypertrophic differentiation of murine chondrocytes. J CLIN INVEST 118: 2506-2515. C28/I2 and HEK293-TOP cells were maintained in DMEM (Gibco) containing 10% FBS. All chemicals were dissolved in dimethyl sulfoxide (DMSO; Sigma-Aldrich, St Louis, Mo.) for the in vitro studies. For E2 (17β-estradiol; Sigma-Aldrich) treatment, cells were cultured in phenol red-free DMEM/F12 with 5% charcoal-stripped FBS for 24 hours followed by serum-free medium for 24 hours before the experiment. The PTD-DBMP was synthesized by Peptide 2.0 Inc (Chantilly, Va.).
Immunocytochemistry. ATDCS or C28/I2 cells were seeded on glass coverslip in 12-well culture plates. The cells were washed with PBS and fixed with 4% PFA at room temperature for 15 minutes. After permeabilization with 0.1% triton-X-100 for 15 minutes and blocking with 5% BSA for 1 hour, the cells were incubated with primary antibodies specific for β-catenin (1:100) or CXXC5 l (1:200) at 4° C. overnight. […]
Immunoblot analyses. […] Immunoblot bands were analyzed using Multi-Gauge V3.0 software (Fujifilm). Points of interest (POIs) from immunoblot bands were marked and quantified using densitometry, and the background signals were subtracted from respective immunoblot signals. […]
Reverse transcription and quantitative real-time PCR. […]

[1] = In vivo pharmacokinetics of KY19382; design: species or system Sprague-Dawley (SD) rats; details: rat
Protocol: In vivo pharmacokinetics of KY19382. Animal studies were approved by the Institutional Animal Care and use committee at KRIBB. Briefly, specific pathogen-free male Sprague-Dawley (SD) rats (10 weeks old, body weight 298-315 g), purchased from Koatech Co. (Kyeonggi, Republic of Korea), were given a single dose of KY19382 intravenously (iv, 1 mg/kg, n=3) or intraperitoneal (ip, 5 mg/kg, n=3). […] A 100 μl aliquot of each plasma sample was prepared, and three volumes of ice-cold acetonitrile containing carbamazepine (internal standard) were added. The mixture was centrifuged at 910 g for 10 min, and the supernatant was subjected to LC-MS/MS analysis. Pharmacokinetic parameters were calculated by standard noncompartmental analysis of plasma concentration-time profiles using Kinetica 4.4.1 (Thermo Fisher Scientific, Inc., Woburn, Mass., USA). The areas under the plasma concentration-time curves (AUC) were calculated by the linear-trapezoidal method. Systemic plasma clearance (CLP) was calculated as follows: CLP=dose/AUCinf. […] Volume of distribution at steady state (VSS) was calculated as follows: VSS=dose×AUMCinf/(AUCinf)2, where AUMCinf is the area under the first moment of the plasma concentration-time curve extrapolated to infinity Bioavailability (F) was calculated as follows: F (%)=(AUCip/AUCiv)(doseiv/doseip)×100.

[2] = test system: TOPFlash Wnt reporter activity; experiment: TOPFlash Wnt reporter assay in HEK293-TOP cells; assay type: cell-based; details: 18 hours, FIG. 4D
Protocol: Reporter assay. HEK293-TOP cells were seeded into each well of a 24-well plate. The cells were treated with individual compounds at indicated concentration and cultured for 18 hours. The cells were then harvested and lysed in 60 μl of Reporter Lysis Buffer (Promega, Madison, Wis.) according to the manufacturer's instructions. After centrifugation, 20 μl of the supernatant was used to measure luciferase activity. Relative luciferase activities were normalized to that of the DMSO-treated control.

[3] = male, Sprague-Dawley, plasma, IP, 5 mg/kg, mean
[4] = male, Sprague-Dawley, plasma, IV, 1 mg/kg, mean

Row | Compound | expression of CXXC5 (C28/I2 cells; 100 nM, 0-72 hours, FIG. 2A) | β-catenin level (C28/I2 cells; 100 nM, following 24 hours) | CL ([1]; IP, 5 mg/kg, mean) | bioavailability ([1]; male, Sprague-Dawley, plasma, intraperitoneal, IP, 5 mg/kg vs IV, 1 mg/kg) | AUC(0-t) [1, 3] | Cmax [1, 3] | Tmax [1, 3] | half-life [1, 3] | AUC(0-t) [1, 4] | clearance [1, 4] | half-life [1, 4] | Vd ([1]; male, Sprague-Dawley, plasma, IV, 1 mg/kg, mean, read-out: Vss) | TOPFlash Wnt reporter activity [2] | mRNA levels of chondrogenic markers (C28/I2 cells; 1 μM, 3 days, alginate beads, FIG. 11C)
1 | 17β-estradiol [Compound E2] | induced expression of CXXC5 in a time-dependent manner | reduced |  |  |  |  |  |  |  |  |  |  |  | 
2 | CO/N=C1/C(=C2/C(=O)Nc3cc(Cl)c(Cl)cc32)Nc2ccccc21 [KY19382, 5,6-dichloroindirubin-3′-methoxime] |  |  | 0.47 L/h/kg | 16.7% | 6560 ng·h/mL | 463 ng/mL | 1 h | 972 min | 7830 ng·h/mL | 2 mL/min/kg | 200 min | 0.33 L/kg | strong enhancement | upregulated
